# Assay results as given in article PMC11904993, “Humanized Candida and NanoBiT Assays Expedite Discovery of Bdf1 Bromodomain Inhibitors With Antifungal Potential” (Advanced Science, 2025).
# Several values for one entry are separate records, joined by “and”; a condition that tells them apart may be missing. Equal entries are not always repeated. Where two headings read alike, the source gives them in different places.
# Tests used:
# [1] = target: T1, CaBdf1 BD2 (Candida albicans, UniProt Q5A4W8); experiment: HTRF assay, inhibition of H4ac4 peptide binding; parameters: species or system C. albicans
# T1 construct: BD1 (residues 193–327) and BD2 (residues 361–501) from CaBdf1 (Uniprot ID Q5A4W8); made in house; host or cells: E. coli BL21(DE3)
# [2] = target: T2, CaBdf1 BD1 (Candida albicans, UniProt Q5A4W8); experiment: HTRF assay, inhibition of H4ac4 peptide binding; parameters: species or system C. albicans
# T2 construct: BD1 (residues 193–327) and BD2 (residues 361–501) from CaBdf1 (Uniprot ID Q5A4W8); made in house; host or cells: E. coli BL21(DE3)
# [3] = target: T3, Bdf1‐SmBiT/H2A.Z‐LgBiT pair (Saccharomyces cerevisiae, UniProt P35817); experiment: NanoBiT assay; type: cell-based, S. cerevisiae; parameters: remaining activity: dose or concentration left out as unconfirmed
# T3 construct: expressed in transfected cells; host or cells: S. cerevisiae (H2A.Z-LgBiT strain)
# Procedure: (§1) Yeast strains were distributed in 96‐well microplates containing SC(MSG)‐U medium (SC‐U medium with 0.1% monosodium glutamate instead of ammonium sulfate as a nitrogen source) and grown at 30 °C. 40 µL of exponentially growing cells were transferred in white 96‐well half‐area microplates (ProxiPlate Plus, Greiner Bio‐One) previously filled with 40 µL per well of SC(MSG) containing 100 µM furimazine. The microplates were then incubated for 10 min in the dark before the luminescence signals were recorded using a microplate reader (Ensight, PerkinElmer). Luminescence measurements were performed for 1 s per well at a distance of 0.1 mm between the plate and the detector. The luminescence values were normalized with the optical density (OD600) of the corresponding cultures. For NanoBiT assays with BET inhibitors, yeast cultures were grown overnight at 30 °C in SC(MSG) medium in the presence of serial dilutions of 24c and I‐BET726. Overnight cultures were diluted 5 fold in SC(MSG) and incubated for 1 h before luminescence was recorded as previously indicated. Luminescence values for each condition were normalized using the average of the luminescence recorded for the Bdf1/Swc4 and Bmh1/Bmh2 controls.
# [4] = target: T4, Bdf1/Swc4 (Saccharomyces cerevisiae, UniProt P35817); experiment: NanoBiT assay, control pair; type: cell-based, S. cerevisiae; parameters: remaining activity: dose or concentration left out as unconfirmed
# T4 construct: expressed in transfected cells; host or cells: S. cerevisiae
# Procedure: as §1
# [5] = target: T5, human Brd4 BD2 (Homo sapiens, UniProt O60885); experiment: HTRF assay, inhibition of H4ac4 peptide binding; details: Brd4 BD2
# T5 construct: GST‐tagged BD2 (residues 349–460) from human Brd4 (UniProt ID O60885); purchased Reaction Biology Corp
# [6] = read-out: HTRF signal, normalized (Figure 5A data)
# [7] = read-out: Normalized nanoBiT signal
# T2 sequence (Q5A4W8 193-327): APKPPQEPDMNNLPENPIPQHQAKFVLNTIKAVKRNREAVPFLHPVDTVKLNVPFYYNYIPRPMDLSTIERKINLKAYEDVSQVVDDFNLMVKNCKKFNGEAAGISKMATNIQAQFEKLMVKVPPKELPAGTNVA
# T4 sequence (P35817 whole entry): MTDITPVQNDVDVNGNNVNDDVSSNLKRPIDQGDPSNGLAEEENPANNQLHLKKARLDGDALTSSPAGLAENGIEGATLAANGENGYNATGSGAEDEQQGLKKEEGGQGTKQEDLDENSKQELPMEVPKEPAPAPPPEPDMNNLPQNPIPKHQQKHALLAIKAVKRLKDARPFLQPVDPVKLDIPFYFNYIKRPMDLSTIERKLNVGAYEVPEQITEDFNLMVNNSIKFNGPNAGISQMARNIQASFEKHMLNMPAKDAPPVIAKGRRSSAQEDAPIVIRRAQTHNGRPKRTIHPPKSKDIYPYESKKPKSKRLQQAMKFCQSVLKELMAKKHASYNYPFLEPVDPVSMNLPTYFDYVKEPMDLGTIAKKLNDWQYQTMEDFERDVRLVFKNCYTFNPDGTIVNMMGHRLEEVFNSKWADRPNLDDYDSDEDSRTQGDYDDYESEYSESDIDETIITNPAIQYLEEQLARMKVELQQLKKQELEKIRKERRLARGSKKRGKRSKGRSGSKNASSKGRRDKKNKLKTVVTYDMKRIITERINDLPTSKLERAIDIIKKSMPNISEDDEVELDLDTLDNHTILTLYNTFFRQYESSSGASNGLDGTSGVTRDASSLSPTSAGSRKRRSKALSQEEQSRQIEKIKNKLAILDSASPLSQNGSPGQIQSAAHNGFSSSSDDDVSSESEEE
# T4 sequence (P53201 whole entry, further chain): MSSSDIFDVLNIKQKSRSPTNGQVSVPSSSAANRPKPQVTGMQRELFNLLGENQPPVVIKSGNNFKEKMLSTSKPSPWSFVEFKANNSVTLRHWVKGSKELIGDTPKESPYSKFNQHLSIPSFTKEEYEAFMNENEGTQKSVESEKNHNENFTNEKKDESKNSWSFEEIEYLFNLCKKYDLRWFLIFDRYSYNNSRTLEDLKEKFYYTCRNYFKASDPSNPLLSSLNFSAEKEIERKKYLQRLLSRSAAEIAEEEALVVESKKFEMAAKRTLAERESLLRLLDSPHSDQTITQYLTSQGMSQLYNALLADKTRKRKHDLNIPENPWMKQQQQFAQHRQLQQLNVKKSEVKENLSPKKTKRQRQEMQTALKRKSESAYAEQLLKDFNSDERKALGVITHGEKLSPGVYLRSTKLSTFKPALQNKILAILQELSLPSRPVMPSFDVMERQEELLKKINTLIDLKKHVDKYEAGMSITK
# T3 sequence (P35817 whole entry): as the sequence (P35817 whole entry) above
# T1 sequence (Q5A4W8 361-501): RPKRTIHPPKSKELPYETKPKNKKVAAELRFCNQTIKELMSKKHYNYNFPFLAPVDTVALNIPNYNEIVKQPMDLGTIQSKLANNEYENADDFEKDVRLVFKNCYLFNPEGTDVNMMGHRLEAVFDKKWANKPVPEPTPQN
smiles,measurement,setting,value
CC(=O)N1c2ccc(-c3ccc(C(=O)O)cc3)cc2C(Nc2ccc(Cl)cc2)CC1C (stereo not drawn) [I-BET726],remaining activity at 0.0021 µM,"[1]; CaBD2, 2.10 nM, read-out: HTRF signal, normalized (Figure 5A data)",108%
same,remaining activity at 0.01311 µM,"[1]; CaBD2, 13.11 nM, read-out: HTRF signal, normalized (Figure 5A data)",98.4%
same,remaining activity at 0.03277 µM,"[1]; CaBD2, 32.77 nM, read-out: HTRF signal, normalized (Figure 5A data)",95.1%
same,remaining activity at 0.2048 µM,"[1]; CaBD2, 204.8 nM, read-out: HTRF signal, normalized (Figure 5A data)",61.4%
same,remaining activity at 0.512 µM,"[1]; CaBD2, 512 nM, read-out: HTRF signal, normalized (Figure 5A data)",25.6%
same,remaining activity at 1.28 µM,"[1]; CaBD2, 1280 nM, read-out: HTRF signal, normalized (Figure 5A data)",11.4%
same,IC50,"[1]; Fig 5A, four replicates, read-out: IC50 (μM) BD2, C. alb. Bdf1",0.63 ± 0.05 µM
same,remaining activity at 0.00524 µM,[1]; [6],102%
same,remaining activity at 0.0021 µM,"[2]; CaBD1, 2.10 nM, read-out: HTRF signal, normalized (Figure 5A data)",103%
same,remaining activity at 0.01311 µM,"[2]; CaBD1, 13.11 nM, read-out: HTRF signal, normalized (Figure 5A data)",96%
same,remaining activity at 0.03277 µM,"[2]; CaBD1, 32.77 nM, read-out: HTRF signal, normalized (Figure 5A data)",90.6%
same,remaining activity at 0.08192 µM,"[2]; CaBD1, 81.92 nM, read-out: HTRF signal, normalized (Figure 5A data)",66.5%
same,remaining activity at 0.2048 µM,"[2]; CaBD1, 204.8 nM, read-out: HTRF signal, normalized (Figure 5A data)",27%
same,remaining activity at 0.512 µM,"[2]; CaBD1, 512 nM, read-out: HTRF signal, normalized (Figure 5A data)",5.16%
same,IC50,"[2]; Fig 5A, four replicates, read-out: IC50 (μM) BD1, C. alb. Bdf1",0.27 ± 0.02 µM
same,remaining activity at 0.00524 µM,[2]; [6],103%
same,remaining activity at 0.01311 µM,[2]; [6],99.9%
same,remaining activity at 1.28 µM,[2]; [6],2.74%
same,remaining activity at 3.2 µM,[2]; [6],1.61%
same,remaining activity at 24.41 µM,"[3]; Bdf1-SmBiT, Htz1-LgBiT, 0.02441 mM, Fig 4C, read-out: Normalized nanoBiT signal",92%
same,remaining activity at 97.66 µM,"[3]; Bdf1-SmBiT, Htz1-LgBiT, 0.09766 mM, Fig 4C, read-out: Normalized nanoBiT signal",93%
same,remaining activity at 195.31 µM,"[3]; Bdf1-SmBiT, Htz1-LgBiT, 0.19531 mM, Fig 4C, read-out: Normalized nanoBiT signal",96%
same,remaining activity at 390.63 µM,"[3]; Bdf1-SmBiT, Htz1-LgBiT, 0.39063 mM, Fig 4C, read-out: Normalized nanoBiT signal",92%
same,remaining activity at 781.25 µM,"[3]; Bdf1-SmBiT, Htz1-LgBiT, 0.78125 mM, Fig 4C, read-out: Normalized nanoBiT signal",83%
same,remaining activity at 1562.5 µM,"[3]; Bdf1-SmBiT, Htz1-LgBiT, 1.56250 mM, Fig 4C, read-out: Normalized nanoBiT signal",65%
same,remaining activity at 3125 µM,"[3]; Bdf1-SmBiT, Htz1-LgBiT, 3.12500 mM, Fig 4C, read-out: Normalized nanoBiT signal",46%
same,remaining activity,"[3]; Bdf1-SmBiT, Htz1-LgBiT, […], Fig 4C, read-out: Normalized nanoBiT signal",39%
same,IC50,"[3]; mean and s.d., 4 independent experiments, read-out: IC50 (μM) (ScBdf1 / H2A.Z) NanoBiT signal",2.1 µM
same,remaining activity at 48.83 µM,[3]; [7],96%
same,remaining activity at 24.41 µM,"[4]; Bdf1-SmBiT, Swc4-LgBiT, 0.02441 mM, Fig 4C, read-out: Normalized nanoBiT signal",95%
same,remaining activity at 97.66 µM,"[4]; Bdf1-SmBiT, Swc4-LgBiT, 0.09766 mM, Fig 4C, read-out: Normalized nanoBiT signal",93%
same,remaining activity at 195.31 µM,"[4]; Bdf1-SmBiT, Swc4-LgBiT, 0.19531 mM, Fig 4C, read-out: Normalized nanoBiT signal",95%
same,remaining activity at 390.63 µM,"[4]; Bdf1-SmBiT, Swc4-LgBiT, 0.39063 mM, Fig 4C, read-out: Normalized nanoBiT signal",91%
same,remaining activity at 781.25 µM,"[4]; Bdf1-SmBiT, Swc4-LgBiT, 0.78125 mM, Fig 4C, read-out: Normalized nanoBiT signal",90%
same,remaining activity,"[4]; Bdf1-SmBiT, Swc4-LgBiT, […], Fig 4C, read-out: Normalized nanoBiT signal",99%
same,"inhibition of NanoBiT signal, Bdf1/Swc4",[4]; control pair independent of Bdf1 BDs,not observed
same,remaining activity at 48.83 µM,[4]; [7],92%
same,"HTRF signal, normalized (Figure 5A data)",[5]; 0.0537 nM,102.97 and 106.08 and 108.84 and 105.09
same,"HTRF signal, normalized (Figure 5A data)",[5]; 0.13 nM,103.72 and 102.37 and 103.68 and 103.57
same,"HTRF signal, normalized (Figure 5A data)",[5]; 0.34 nM,94.46 and 91.58 and 95.80 and 94.95
same,"HTRF signal, normalized (Figure 5A data)",[5]; 0.84 nM,79.67 and 69.64 and 75.99 and 78.48
same,"HTRF signal, normalized (Figure 5A data)",[5]; 2.10 nM,45.84 and 41.04 and 44.03 and 46.83
